# PubChem BioAssay (NCI)
#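 1) Cells in 96-well plates. 2) Compound, 48 h, 5 concentrations. 3) Linear interpolation between surrounding doses. 4) Unreached endpoint = highest concentration. GI50 = concentration required for 50% inhibition of growth. At the TGI there is no net growth.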
# How the values were obtained:
# Assay in all cases: growth of human tumour cells (NCI), 48 h
# U251 CNS = test system: U251 CNS
# NCI-H23 lung = test system: NCI-H23 lung
# SK-OV-3 ovarian = test system: SK-OV-3 ovarian
# KM12 colon = test system: KM12 colon
# EKVX NSCLC = test system: EKVX NSCLC
# T-47D breast = test system: T-47D breast
# MOLT-4 leukemia = test system: MOLT-4 leukemia
# BT-549 breast = test system: BT-549 breast
# MDA-MB-435 = test system: MDA-MB-435
# HT29 colon = test system: HT29 colon
# RXF 393 renal = test system: RXF 393 renal
# TK-10 renal = test system: TK-10 renal
# SR leukemia = test system: SR leukemia
# SN12C renal = test system: SN12C renal
# OVCAR-5 ovarian = test system: OVCAR-5 ovarian
# NCI/ADR-RES ovarian = test system: NCI/ADR-RES ovarian
# MALME-3M melanoma = test system: MALME-3M melanoma
# MCF7 breast = test system: MCF7 breast
# HCC-2998 colon = test system: HCC-2998 colon
# NCI-H460 lung = test system: NCI-H460 lung
# 786-0 renal = test system: 786-0 renal
# SK-MEL-5 melanoma = test system: SK-MEL-5 melanoma
# M14 melanoma = test system: M14 melanoma
# CAKI-1 renal = test system: CAKI-1 renal
# SF-295 CNS = test system: SF-295 CNS
# HCT-116 colon = test system: HCT-116 colon
smiles,measurement,setting,value
N#C[Se]CCN1C(=O)C2C(C1=O)[C@H]1C=C[C@@H]2S1 (some centres not stated),GI50,U251 CNS,1800 nM
same,TGI,U251 CNS,4130 nM
same,GI50,NCI-H23 lung,2460 nM
same,TGI,NCI-H23 lung,6510 nM
same,GI50,SK-OV-3 ovarian,2670 nM
same,TGI,SK-OV-3 ovarian,5590 nM
same,GI50,KM12 colon,2320 nM
same,TGI,KM12 colon,5380 nM
same,GI50,EKVX NSCLC,1830 nM
same,TGI,EKVX NSCLC,4280 nM
same,GI50,T-47D breast,2520 nM
same,TGI,T-47D breast,7780 nM
same,GI50,MOLT-4 leukemia,1310 nM
same,TGI,MOLT-4 leukemia,8060 nM
same,GI50,BT-549 breast,1740 nM
same,TGI,BT-549 breast,3380 nM
same,GI50,MDA-MB-435,1700 nM
same,TGI,MDA-MB-435,3260 nM
same,GI50,HT29 colon,2650 nM
same,TGI,HT29 colon,8980 nM
same,GI50,RXF 393 renal,1630 nM
same,TGI,RXF 393 renal,3270 nM
same,GI50,TK-10 renal,2160 nM
same,TGI,TK-10 renal,4440 nM
same,GI50,SR leukemia,1980 nM
same,TGI,SR leukemia,7700 nM
same,GI50,SN12C renal,1920 nM
same,TGI,SN12C renal,4070 nM
same,GI50,OVCAR-5 ovarian,2560 nM
same,TGI,OVCAR-5 ovarian,6400 nM
same,GI50,NCI/ADR-RES ovarian,2400 nM
same,TGI,NCI/ADR-RES ovarian,7180 nM
same,GI50,MALME-3M melanoma,1530 nM
same,TGI,MALME-3M melanoma,3650 nM
same,GI50,MCF7 breast,2370 nM
same,TGI,MCF7 breast,9190 nM
same,GI50,HCC-2998 colon,2180 nM
same,TGI,HCC-2998 colon,5440 nM
same,GI50,NCI-H460 lung,1930 nM
same,TGI,NCI-H460 lung,6770 nM
same,GI50,786-0 renal,1970 nM
same,TGI,786-0 renal,3680 nM
same,GI50,SK-MEL-5 melanoma,2020 nM
same,TGI,SK-MEL-5 melanoma,4090 nM
same,GI50,M14 melanoma,1540 nM
same,TGI,M14 melanoma,3620 nM
same,GI50,CAKI-1 renal,1900 nM
same,TGI,CAKI-1 renal,3390 nM
same,GI50,SF-295 CNS,1830 nM
same,TGI,SF-295 CNS,3350 nM
same,GI50,HCT-116 colon,1850 nM
same,TGI,HCT-116 colon,4350 nM
